Experimental data reported in patent US8192962B2, “Processes for detecting toxic substances” (Daikin Industries, Ltd., priority 2001, dated 2012).

Tested on: Detoxification protein genes
Experiment: DNA chip mRNA expression in yeast, detoxification protein genes (Table 8)
Format: cell-based, Saccharomyces cerevisiae S288C
Summary of the method: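 Untreated cultures served as reference for log-phase S288C yeast given a growth-inhibiting, non-lethal toxicant dose for 2 h at 25° C. in YPD. Gene expression was measured on a whole-genome DNA chip from Cy3/Cy5-labeled cDNA.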

Na2As [(1)]
The level of expressed mRNA in the presence of chemical substance/The level of expressed mRNA in the absence of chemical substance (yeast gene YBL064C): 2.6 | The level of expressed mRNA in the presence of chemical substance/The level of expressed mRNA in the absence of chemical substance (yeast gene YBR008C): 3.0 | The level of expressed mRNA in the presence of chemical substance/The level of expressed mRNA in the absence of chemical substance (yeast gene YBR145W): 1.5 | The level of expressed mRNA in the presence of chemical substance/The level of expressed mRNA in the absence of chemical substance (yeast gene YBR244W): 0.6 | The level of expressed mRNA in the presence of chemical substance/The level of expressed mRNA in the absence of chemical substance (yeast gene YBR293W): 1.9 | The level of expressed mRNA in the presence of chemical substance/The level of expressed mRNA in the absence of chemical substance (yeast gene YCL035C): 2.0 | The level of expressed mRNA in the presence of chemical substance/The level of expressed mRNA in the absence of chemical substance (yeast gene YCL069W): 0.9 | The level of expressed mRNA in the presence of chemical substance/The level of expressed mRNA in the absence of chemical substance (yeast gene YCR083W): 1.1 | The level of expressed mRNA in the presence of chemical substance/The level of expressed mRNA in the absence of chemical substance (yeast gene YDL100C): 1.0 | The level of expressed mRNA in the presence of chemical substance/The level of expressed mRNA in the absence of chemical substance (yeast gene YDL168W): 2.3 | The level of expressed mRNA in the presence of chemical substance/The level of expressed mRNA in the absence of chemical substance (yeast gene YDR256C): 0.8 | The level of expressed mRNA in the presence of chemical substance/The level of expressed mRNA in the absence of chemical substance (yeast gene YDR453C): 1.1 | The level of expressed mRNA in the presence of chemical substance/The level of expressed mRNA in the absence of chemical substance (yeast gene YDR513W): 2.2 | The level of expressed mRNA in the presence of chemical substance/The level of expressed mRNA in the absence of chemical substance (yeast gene YDR538W): 0.9 | The level of expressed mRNA in the presence of chemical substance/The level of expressed mRNA in the absence of chemical substance (yeast gene YEL027W): 1.2 | The level of expressed mRNA in the presence of chemical substance/The level of expressed mRNA in the absence of chemical substance (yeast gene YEL065W): 0.3 | The level of expressed mRNA in the presence of chemical substance/The level of expressed mRNA in the absence of chemical substance (yeast gene YER185W): 2.0 | The level of expressed mRNA in the presence of chemical substance/The level of expressed mRNA in the absence of chemical substance (yeast gene YFL050C): 0.7 | The level of expressed mRNA in the presence of chemical substance/The level of expressed mRNA in the absence of chemical substance (yeast gene YGL013C): 0.9 | The level of expressed mRNA in the presence of chemical substance/The level of expressed mRNA in the absence of chemical substance (yeast gene YGL254W): 1.2 | The level of expressed mRNA in the presence of chemical substance/The level of expressed mRNA in the absence of chemical substance (yeast gene YGR088W): 1.3 | The level of expressed mRNA in the presence of chemical substance/The level of expressed mRNA in the absence of chemical substance (yeast gene YGR138C): 1.1 | The level of expressed mRNA in the presence of chemical substance/The level of expressed mRNA in the absence of chemical substance (yeast gene YGR197C): 1.1 | The level of expressed mRNA in the presence of chemical substance/The level of expressed mRNA in the absence of chemical substance (yeast gene YGR209C): 1.6 | The level of expressed mRNA in the presence of chemical substance/The level of expressed mRNA in the absence of chemical substance (yeast gene YGR224W): 0.9 | The level of expressed mRNA in the presence of chemical substance/The level of expressed mRNA in the absence of chemical substance (yeast gene YHL040C): 1.6 | The level of expressed mRNA in the presence of chemical substance/The level of expressed mRNA in the absence of chemical substance (yeast gene YHL047C): 0.6 | The level of expressed mRNA in the presence of chemical substance/The level of expressed mRNA in the absence of chemical substance (yeast gene YHR008C): 1.3 | The level of expressed mRNA in the presence of chemical substance/The level of expressed mRNA in the absence of chemical substance (yeast gene YHR048W): 2.5 | The level of expressed mRNA in the presence of chemical substance/The level of expressed mRNA in the absence of chemical substance (yeast gene YHR053C): 3.5 | The level of expressed mRNA in the presence of chemical substance/The level of expressed mRNA in the absence of chemical substance (yeast gene YHR055C): 4.4 | The level of expressed mRNA in the presence of chemical substance/The level of expressed mRNA in the absence of chemical substance (yeast gene YIR002C): 0.8 | The level of expressed mRNA in the presence of chemical substance/The level of expressed mRNA in the absence of chemical substance (yeast gene YIR038C): 1.3 | The level of expressed mRNA in the presence of chemical substance/The level of expressed mRNA in the absence of chemical substance (yeast gene YJL101C): 2.1 | The level of expressed mRNA in the presence of chemical substance/The level of expressed mRNA in the absence of chemical substance (yeast gene YJR104C): 1.4 | The level of expressed mRNA in the presence of chemical substance/The level of expressed mRNA in the absence of chemical substance (yeast gene YKL026C): 2.7 | The level of expressed mRNA in the presence of chemical substance/The level of expressed mRNA in the absence of chemical substance (yeast gene YKL064W): 0.6 | The level of expressed mRNA in the presence of chemical substance/The level of expressed mRNA in the absence of chemical substance (yeast gene YKR066C): 0.9 | The level of expressed mRNA in the presence of chemical substance/The level of expressed mRNA in the absence of chemical substance (yeast gene YKR105C): 0.8 | The level of expressed mRNA in the presence of chemical substance/The level of expressed mRNA in the absence of chemical substance (yeast gene YKR106W): 1.3 | The level of expressed mRNA in the presence of chemical substance/The level of expressed mRNA in the absence of chemical substance (yeast gene YLL028W): 0.6 | The level of expressed mRNA in the presence of chemical substance/The level of expressed mRNA in the absence of chemical substance (yeast gene YLL057C): 2.2 | The level of expressed mRNA in the presence of chemical substance/The level of expressed mRNA in the absence of chemical substance (yeast gene YLL060C): 12.5 | The level of expressed mRNA in the presence of chemical substance/The level of expressed mRNA in the absence of chemical substance (yeast gene YLR043C): 1.4 | The level of expressed mRNA in the presence of chemical substance/The level of expressed mRNA in the absence of chemical substance (yeast gene YLR046C): 0.7 | The level of expressed mRNA in the presence of chemical substance/The level of expressed mRNA in the absence of chemical substance (yeast gene YML028W): 1.0 | The level of expressed mRNA in the presence of chemical substance/The level of expressed mRNA in the absence of chemical substance (yeast gene YML116W): 4.1 | The level of expressed mRNA in the presence of chemical substance/The level of expressed mRNA in the absence of chemical substance (yeast gene YMR015C): 0.7 | The level of expressed mRNA in the presence of chemical substance/The level of expressed mRNA in the absence of chemical substance (yeast gene YMR038C): 1.9 | The level of expressed mRNA in the presence of chemical substance/The level of expressed mRNA in the absence of chemical substance (yeast gene YNL239W): 1.0 | The level of expressed mRNA in the presence of chemical substance/The level of expressed mRNA in the absence of chemical substance (yeast gene YNL241C): 1.3 | The level of expressed mRNA in the presence of chemical substance/The level of expressed mRNA in the absence of chemical substance (yeast gene YNL259C): 1.6 | The level of expressed mRNA in the presence of chemical substance/The level of expressed mRNA in the absence of chemical substance (yeast gene YOL158C): 0.7 | The level of expressed mRNA in the presence of chemical substance/The level of expressed mRNA in the absence of chemical substance (yeast gene YOR031W): 2.6 | The level of expressed mRNA in the presence of chemical substance/The level of expressed mRNA in the absence of chemical substance (yeast gene YOR153W): 1.6 | The level of expressed mRNA in the presence of chemical substance/The level of expressed mRNA in the absence of chemical substance (yeast gene YOR247W): 1.7 | The level of expressed mRNA in the presence of chemical substance/The level of expressed mRNA in the absence of chemical substance (yeast gene YOR251C): 1.1 | The level of expressed mRNA in the presence of chemical substance/The level of expressed mRNA in the absence of chemical substance (yeast gene YOR273C): 0.7 | The level of expressed mRNA in the presence of chemical substance/The level of expressed mRNA in the absence of chemical substance (yeast gene YPL163C): 0.6 | The level of expressed mRNA in the presence of chemical substance/The level of expressed mRNA in the absence of chemical substance (yeast gene YPR200C): 47.7
